These results are taken from patent US20190230931A1, “SURFACE TREATMENTS” (priority 2014, published 2019).

Values after ≈ are worked out from the molar mass of the structure shown. Like-named read-outs stand apart in the source and are kept apart here.

What all share (assay type): cell-based
Test [1] concerns Staphylococcus aureus clinical isolate. Kind of test: Susceptibility of clinical isolates by broth microdilution (MIC/MBC). The settings on record: for MBC: broth microdilution and plating, read-out: Minimum bactericidal concentration (MBC); for MIC: broth microdilution, 37° C., 18 hours, read-out: Minimum inhibitory concentration (MIC). On the procedure:
(§1) Frozen stocks of the Staphylococcus sp. inocula were thawed at 37° C. for 10 minutes and vortexed before plating on blood agar and incubating at 37° C. for 18 hours. Single colonies were used to inoculate a volume of 10 mL of Mueller-Hinton Broth (MHB) and incubated at 37° C. for 18 hours in a shaking incubator (200 rpm). A volume of 100 μL of the actively growing culture was then used to inoculate a volume of 100 mL of MHB and incubated at 37° C. for 6½ hours. […] A volume of 100 μL of each dilution step was spread on plate count agar (PCA) plates and incubated at 37° C. for 18 hours to confirm viable cell numbers. The dilution to 10^−7 was used in the following steps.
(§2) The susceptibility of clinical isolates of Staphylococcus aureus, Escherichia coli and Pseudomonas aeruginosa to the constructs designated Spm-Ad-DOPE (9a) and NCSeCH2CO—CMG(2)-Ad-DOPE was determined by broth microdilution. Actively growing cultures of each clinical isolate were prepared as described above to obtain cultures with the following turbidities (OD600):
(§3) Serial dilutions of each culture to 10^−6 were prepared and used as inocula. Volumes of 50 μL of each dilution was spread on PCA plates and incubated at 37° C. for 18 hours. A two-fold dilution series for each of the two constructs, spermine (2) and selenous acid (H2SeO3) were prepared in sterile 96-well plates. Volumes of 50 μL of inocula were dispensed into a well containing a volume of 50 μL of the serially diluted construct, spermine (2) or selenous acid (H2SeO3). Following gentle mixing the plates were incubated in the dark at 37° C. for 18 hours (200 rpm). Minimum inhibitory concentrations (MIC) were thereby observed and minimum bactericidal concentrations (MBC) determined by plating aliquots from each well.
For orientation: In broth dilution the organism is exposed to a series of concentrations in liquid medium.

The subject of test [2] is Pseudomonas aeruginosa clinical isolate. Described as above. Conditions: for MBC: broth microdilution and plating, read-out: Minimum bactericidal concentration (MBC); for MIC: broth microdilution, 37° C., 18 hours, read-out: Minimum inhibitory concentration (MIC). On the procedure:
as §1, §2, §3

Test [3] deals with Escherichia coli clinical isolate. Described as above. Conditions: for MBC: broth microdilution and plating, read-out: Minimum bactericidal concentration (MBC); for MIC: broth microdilution, 37° C., 18 hours, read-out: Minimum inhibitory concentration (MIC). On the procedure:
as §1, §2, §3

The test system of test [4] is Red blood cells (RBCs; group O). Put plainly: Adherence of red blood cells to treated microplate well surfaces.
Experimental: A stock solution of the construct designated Spm-Ad-DOPE (9a) was prepared in methanol at a concentration of 10 mg/mL. The stock solution was diluted to a concentration of 250 μg/mL in methanol and 25 μL volumes of the diluted stock solutions dispensed into each of the round bottomed wells of a multi-well microplate (Corning Inc.). The plates were allowed to dry before washing the wells 6 times with deionized water.
Red blood cells (RBCs; group O, up to 2 weeks old) were washed and re-suspended at a concentration of 1% packed cell volume (pcv) in phosphate-buffered saline (PBS). A 50 μL volume of the suspension of RBCs was dispensed into each of the wells and incubated for 1 hour at room temperature before washing 6 times with PBS. The RBCs were fixed by adding a 50 μL volume of a solution of glutaraldehyde in PBS at a concentration of 2.5% (w/v) and incubating for 10 minutes before washing each well with water and allowing to dry. The RBCs were lysed by adding a 50 μL volume of deionized water and incubating for 10 minutes before discarding the water and allowing to dry.
For scanning electron microscopy (SEM) the bottom of each well was cut from the plate and the treated surface sputter coated with platinum prior to imaging.
A two-fold serial dilution from each of the first wells was then performed. […]

With `NCCCNCCCCNCCCN` [Spermine (2), spermine], the MBC in test [1] (Staphylococcus aureus) is 947 µM (≈ 192 µg/mL); in test [2] (Pseudomonas aeruginosa), > 3790 µM; in test [3] (Escherichia coli), 118 µM (≈ 23.9 µg/mL). Besides, the results for the MIC in test [1] (Staphylococcus aureus), in test [2] (Pseudomonas aeruginosa) and in test [3] (Escherichia coli) were 473 µM (≈ 95.8 µg/mL), 3790 µM (≈ 766 µg/mL) and 118 µM (≈ 23.9 µg/mL), respectively. In addition, the “Attachment of RBCs to treated wells” value in test [4] (spermine alone) was “not uniform or reproducible”; in test [4] (spermine alone in water), “No cells were observed to adhere to the surface”.

In the case of `O=[Se](O)O` [H2SeO3, selenous acid], the MBC in test [1], in test [2] and in test [3] was >1985.01 µM each time. Moreover, the MIC in test [1] is on record as 1985.01 µM (≈ 256 µg/mL); in test [2], >1985.01 µM; in test [3] it was 1985.01 µM (≈ 256 µg/mL).
